Data set [1] relates to lambsquarter (Chenopodium album). The data set is described as follows: Postemergence herbicidal activity. The format is in vivo. Conditions: post-emergent, 140 g ai/ha, after 14 days; for pest or weed control at 140 g/ha: Chenopodium album, post-emergence, 336 h, read-out: % Control CHEAL. Put shortly:
(§1)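 Compounds were applied postemergence by track sprayer delivering 187 L/ha, using a mixed organic/aqueous carrier containing crop oil concentrate and surfactant; solvent-blank sprays served as controls. Test plants were at the first to second true leaf stage after 7-21 days' greenhouse growth, were sub-irrigated after treatment, and were evaluated by probit analysis.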

The subject of data set [2] is redroot pigweed (Amaranthus retroflexus). In words: Postemergence herbicidal activity. The format is in vivo. The following applies: post-emergent, 140 g ai/ha, after 14 days; for pest or weed control at 140 g/ha: Amaranthus retroflexus, post-emergence, 336 h, read-out: % Control AMARE. The procedure, abridged: as §1
Data set [3] concerns velvetleaf (Abutilon theophrasti). The data set is described as follows: Postemergence herbicidal activity. The format is in vivo. The following applies: post-emergent, 140 g ai/ha, after 14 days; for pest or weed control at 140 g/ha: Abutilon theophrasti, post-emergence, 336 h, read-out: % Control ABUTH. Put shortly:
as §1

The subject of another data set is Galium aparine. The data set is described as follows: Postemergence herbicidal activity in cereal crops. The class given is in vivo. Conditions: post-emergent, after 20-22 days; for pest or weed control at 17.5 g/ha: 17.5 g ai/ha; for pest or weed control at 35 g/ha: 35 g ai/ha. The procedure:
(§2) When required to ensure good germination and healthy plants, a fungicide treatment and/or other chemical or physical treatment was applied. The plants were grown for 7-36 days in a greenhouse with an approximate 14 hour photoperiod which was maintained at about 18° C. during the day and 17° C. during the night. Nutrients and water were added on a regular basis and supplemental lighting was provided with overhead metal halide 1000-Watt lamps as necessary. The plants were employed for testing when they reached the second or third true leaf stage. […] The concentrated stock solutions obtained were diluted with 16 mL of an aqueous mixture containing acetone, water, isopropyl alcohol, DMSO, Agri-dex crop oil concentrate, and Triton® X-77 surfactant in a 64.7:26.0:6.7:2.0:0.7:0.01 v/v ratio to obtain spray solutions containing the highest application rates. […] Compound requirements are based upon a 12 mL application volume at a rate of 187 L/ha. Formulated compounds were applied to the plant material with an overhead Mandel track sprayer equipped with a […] nozzles calibrated to deliver 187 L/ha over an application area of 0.503 square meters at a spray height of 18 inches (43 cm) above average plant canopy height. Control plants were sprayed in the same manner with the blank. The treated plants and control plants were placed in a greenhouse as described above and watered by sub-irrigation to prevent wash-off of the test compounds.

Another data set deals with Lamium purpureum. The data set is described as follows: Postemergence herbicidal activity in cereal crops. The format is in vivo. Conditions: post-emergent, after 20-22 days; for pest or weed control at 17.5 g/ha: 17.5 g ai/ha; for pest or weed control at 35 g/ha: 35 g ai/ha. The protocol: as §2
In a further data set the test system is Papaver rhoeas. The data set is described as follows: Postemergence herbicidal activity in cereal crops. The format is in vivo. Conditions: post-emergent, after 20-22 days; for pest or weed control at 17.5 g/ha: 17.5 g ai/ha; for pest or weed control at 35 g/ha: 35 g ai/ha. The protocol:
as §2

The subject of another data set is Veronica persica. The data set is described as follows: Postemergence herbicidal activity in cereal crops. The class given is in vivo. The following applies: post-emergent, after 20-22 days; for pest or weed control at 17.5 g/ha: 17.5 g ai/ha; for pest or weed control at 35 g/ha: 35 g ai/ha. The procedure: as §2
The next data set relates to barley (Hordeum vulare). In words: Postemergence herbicidal activity in cereal crops. The format is in vivo. Conditions: crop, post-emergent, after 20-22 days; for pest or weed control at 17.5 g/ha: 17.5 g ai/ha; for pest or weed control at 35 g/ha: 35 g ai/ha. The protocol: as §2
Data set [4] relates to wheat (Triticum aestivum). The data set is described as follows: Postemergence herbicidal activity in cereal crops. The format is in vivo. Conditions: crop, post-emergent, after 20-22 days; for plant injury at 17.5 g/ha: 17.5 g ai/ha; for plant injury at 35 g/ha: 35 g ai/ha. The protocol:
as §2

[5] abbreviates: Galium aparine, post-emergence, 480 h, read-out: % Control GALAP.
[6] abbreviates: Lamium purpureum, post-emergence, 480 h, read-out: % Control LAMPU.
Setting [7] is: Papaver rhoeas, post-emergence, 480 h, read-out: % Control PAPRH.
Where [8] appears, read: Veronica persica, post-emergence, 480 h, read-out: % Control VERPE.
[9] abbreviates: Hordeum, post-emergence, 480 h, read-out: % Control HORVS.
Setting [10] is: Triticum aestivum, post-emergence, 480 h, read-out: % Control TRZAS.

Usually melting point stands for the temperature, or range, at which the solid turns liquid.

`COC(=O)c1nc(-c2ccc(C)c(OC)c2F)cc(N)c1Cl` [Compound 36, 4-amino-3-chloro-6-(2-fluoro-3-methoxy-4-methylphenyl) pyridine-2-carboxylic acid, methyl ester]: in data set [1], the “% Control CHEAL” value stood at 100%. Moreover, the “% Control AMARE” value in data set [2] is 100%. In addition, the “% Control ABUTH” value in [3] came out at 100%. In the data set with Galium aparine (70 g ai/ha), the “% Control GALAP” value stood at 95%. Also, the “% Control LAMPU” value with Lamium purpureum (70 g ai/ha) is reported as 99%. In addition, the “% Control PAPRH” value with Papaver rhoeas (70 g ai/ha) is given as 99%. The “% Control VERPE” value in the data set on Veronica persica (70 g ai/ha) came out at 50%. The “% Control HORVS” value with barley (Hordeum vulare) (70 g ai/ha) is recorded as 0%. Also, the “% Control TRZAS” value in data set [4] (70 g ai/ha) worked out at 5%.

`COC(=O)c1nc(-c2ccc(C(F)(F)F)c(OC)c2F)cc(N)c1Cl` [Compound 45, 4-Amino-3-chloro-6-(2-fluoro-3-methoxy-4-trifluoromethylphenyl)pyridine-2-carboxylic acid methyl ester] registered a melting point of 144 to 146 °C. Also, in [1], the pest or weed control at 140 g/ha worked out at 95%. In data set [2], the pest or weed control at 140 g/ha is 80%. The pest or weed control at 140 g/ha in data set [3] is 100%. The pest or weed control at 17.5 g/ha in the data set with Galium aparine (setting [5]) is 90%. Also, in the data set with Lamium purpureum (setting [6]), the pest or weed control at 17.5 g/ha was 100%. For the same molecule, in the data set with Papaver rhoeas (setting [7]), the pest or weed control at 17.5 g/ha came to 90%. The pest or weed control at 17.5 g/ha in the data set with Veronica persica (setting [8]) stood at 80%. For the same molecule, the pest or weed control at 17.5 g/ha in the data set with barley (Hordeum vulare) (setting [9]) came to 0%. In addition, in data set [4] (setting [10]), the plant injury at 17.5 g/ha is 0%.

Turning to `COC(=O)c1nc(-c2c(F)cc(C)c(OC)c2F)cc(N)c1Cl` [Compound 51, 4-Amino-3-chloro-6-(2,6-difluoro-3-methoxy-4-methylphenyl)pyridine-2-carboxylic acid, methyl ester], the pest or weed control at 140 g/ha in [1], in [2] and in data set [3] was 100% in each case. Moreover, the pest or weed control at 35 g/ha in the data set with Galium aparine (setting [5]) turned out to be 95%; in the data set on Lamium purpureum (setting [6]) it was 70%; in the data set with Papaver rhoeas (setting [7]), 100%; in the data set on Veronica persica (setting [8]), 30%; with barley (Hordeum vulare) (setting [9]) it was 0%. Further, the plant injury at 35 g/ha in data set [4] (setting [10]) was 0%.

With `COC(=O)c1nc(-c2c(F)cc(F)c(OC)c2F)cc(N)c1Cl` [Compound 56, 4-Amino-3-chloro-6-(2,4,6-trifluoro-3-methyoxyphenyl)pyridine-2-carboxylic acid, methyl ester], the “% Control CHEAL” value in [1] amounted to 100%. Besides, in data set [2], the “% Control AMARE” value is given as 100%. The “% Control ABUTH” value in data set [3] was 100%. The “% Control GALAP” value in the data set on Galium aparine (70 g ai/ha) is given as 100%. For the same molecule, the “% Control LAMPU” value in the data set with Lamium purpureum (70 g ai/ha) came out at 99%. Besides, the “% Control PAPRH” value in the data set on Papaver rhoeas (70 g ai/ha) was found to be 100%. The “% Control VERPE” value with Veronica persica (70 g ai/ha) came out at 95%. The “% Control HORVS” value in the data set on barley (Hordeum vulare) (70 g ai/ha) is listed as 10%. Moreover, the “% Control TRZAS” value in [4] (70 g ai/ha) turned out to be 0%.

`COC(=O)c1nc(-c2ccc(Cl)c(C(F)C(F)(F)F)c2F)cc(N)c1Cl` (stereo not drawn) [Compound 65, 4-Amino-3-chloro-6-[4-chloro-2-fluoro-3-(1,2,2,2-tetrafluoroethyl)phenyl)-pyridine-2-carboxylic acid, methyl ester]: the pest or weed control at 140 g/ha in data set [1] was 90%; in data set [2], 100%; in data set [3], 95%. In addition, the pest or weed control at 35 g/ha in the data set on Galium aparine (setting [5]) stood at 85%; in the data set on Lamium purpureum (setting [6]) it was 95%; with Papaver rhoeas (setting [7]) it was 90%; with Veronica persica (setting [8]) it was 40%; in the data set with barley (Hordeum vulare) (setting [9]), 5%. The plant injury at 35 g/ha in data set [4] (setting [10]) amounted to 15%.

For the molecule `COC(=O)c1nc(-c2ccc(C(F)F)c(OC)c2F)cc(N)c1Cl` [Compound 71, 4-Amino-3-chloro-6-(4-difluoromethyl-2-fluoro-3-methoxyphenyl)pyridine-2-carboxylic acid, methyl ester], the melting point lay within 145 to 147 °C. The pest or weed control at 140 g/ha in data set [1] came to 85%. The pest or weed control at 140 g/ha in data set [2] was 80%. Further, the pest or weed control at 140 g/ha in data set [3] was 100%. Moreover, the pest or weed control at 17.5 g/ha in the data set on Galium aparine (setting [5]) came out at 95%. Moreover, the pest or weed control at 17.5 g/ha in the data set on Lamium purpureum (setting [6]) stood at 95%. The pest or weed control at 17.5 g/ha in the data set on Papaver rhoeas (setting [7]) stood at 95%. Besides, the pest or weed control at 17.5 g/ha in the data set with Veronica persica (setting [8]) was found to be 50%. Moreover, the pest or weed control at 17.5 g/ha with barley (Hordeum vulare) (setting [9]) turned out to be 0%. In addition, the plant injury at 17.5 g/ha in data set [4] (setting [10]) was found to be 0%.

Consider `COC(=O)c1nc(-c2cc(OC)c(F)cc2F)cc(N)c1Cl` [Compound 73, 4-Amino-3-chloro-6-(2,4-difluoro-5-methoxyphenyl)pyridine-2-carboxylic acid, methyl ester], for which the melting point was 128 to 130 °C. Moreover, in data set [1], the pest or weed control at 140 g/ha turned out to be 100%. Moreover, the pest or weed control at 140 g/ha in data set [2] stood at 100%. Besides, in data set [3], the pest or weed control at 140 g/ha stood at 90%. Besides, the pest or weed control at 70 g/ha with Galium aparine (Galium aparine, post-emergence, 480 h, 70 g ai/ha, read-out: % Control GALAP) amounted to 95%. The pest or weed control at 70 g/ha in the data set with Lamium purpureum (Lamium purpureum, post-emergence, 480 h, 70 g ai/ha, read-out: % Control LAMPU) is 99%. For the same molecule, in the data set with Papaver rhoeas (Papaver rhoeas, post-emergence, 480 h, 70 g ai/ha, read-out: % Control PAPRH), the pest or weed control at 70 g/ha turned out to be 95%. The pest or weed control at 70 g/ha in the data set with Veronica persica (Veronica persica, post-emergence, 480 h, 70 g ai/ha, read-out: % Control VERPE) is 60%. The pest or weed control at 70 g/ha with barley (Hordeum vulare) (Hordeum, post-emergence, 480 h, 70 g ai/ha, read-out: % Control HORVS) turned out to be 0%. The plant injury at 70 g/ha in [4] (Triticum aestivum, post-emergence, 480 h, 70 g ai/ha, read-out: % Control TRZAS) amounted to 0%.

In the case of `CCCCOCCOC(=O)c1nc(-c2ccc(Cl)c(OC)c2F)cc(N)c1Cl` [Compound 87, 4-Amino-3-chloro-6-(4-chloro-2-fluoro-3-methoxyphenyl)pyridine-2-carboxylic acid, 2-butoxy-ethyl ester], the pest or weed control at 140 g/ha in data set [1], in [2] and in data set [3] was 100% each time. Besides, the pest or weed control at 17.5 g/ha in the data set on Galium aparine (setting [5]) was 100%; in the data set on Lamium purpureum (setting [6]), 100%; in the data set on Papaver rhoeas (setting [7]) it was 100%; with Veronica persica (setting [8]), 50%; with barley (Hordeum vulare) (setting [9]), 0%. Also, the plant injury at 17.5 g/ha in data set [4] (setting [10]) was 0%.

Turning to `COc1c(Cl)cc(F)c(-c2cc(N)c(Cl)c(C(=O)O)n2)c1F` [Compound 133, 4-Amino-3-chloro-6-(4-chloro-2,6-difluoro-3-methoxyphenyl)pyridine-2-carboxylic acid], the pest or weed control at 17.5 g/ha is 100% in the data set on Galium aparine (setting [5]); 99% in the data set on Lamium purpureum (setting [6]); 100% in the data set on Papaver rhoeas (setting [7]); 70% in the data set on Veronica persica (setting [8]); 0% in the data set on barley (Hordeum vulare) (setting [9]). For the same molecule, the plant injury at 17.5 g/ha in data set [4] (setting [10]) was 0%.

The values above are taken from US20070179060A1, “6-(Poly-substituted aryl)-4-aminopicolinates and their use as herbicides” (priority 2006, published 2007).
